We go through 57 molecules from BindingDB's records for doi:10.7270/Q2TX3CTT (Broad Institute, 2010).

Structures are written as SMILES. A value given as a limit tells only on which side of the number the result lay.

In the assay the target is Glycogen synthase kinase-3 beta (Homo sapiens, UniProt P49841). The experiment in a line: concentration-response blocking of human GSK3B – biochemical, luminescence, cell-free homogeneous, retest, dose response (AID 434954).
Chain of Glycogen synthase kinase-3 beta (P49841 whole entry): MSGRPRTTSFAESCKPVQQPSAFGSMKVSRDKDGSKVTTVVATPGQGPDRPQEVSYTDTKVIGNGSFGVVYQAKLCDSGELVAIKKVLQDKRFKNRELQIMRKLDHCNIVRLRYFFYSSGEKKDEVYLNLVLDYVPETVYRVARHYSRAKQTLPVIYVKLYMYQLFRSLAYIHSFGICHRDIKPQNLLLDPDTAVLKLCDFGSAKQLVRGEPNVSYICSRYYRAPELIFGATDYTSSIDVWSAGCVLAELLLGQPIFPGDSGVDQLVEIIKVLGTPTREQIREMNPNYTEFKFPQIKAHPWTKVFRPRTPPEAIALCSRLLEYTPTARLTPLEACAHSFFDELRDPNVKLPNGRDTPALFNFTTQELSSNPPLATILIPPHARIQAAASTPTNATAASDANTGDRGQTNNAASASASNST
What is called EC50 is the concentration that produces a half-maximal response. A lower EC50 goes with greater potency. Consider `Cc1[nH]nc2c1C(c1cccs1)C1C(=O)CC(C)(C)CC1=N2` (configuration not stated) [3,7,7-trimethyl-4-thiophen-2-yl-2,4,6,8-tetrahydro-1H-pyrazolo[3,4-b]quinolin-5-one], for which the midpoint of the response, the EC50, lay at 1.36 µM.
In the case of `COc1ccc(-c2nn(-c3ccccc3)cc2CN=O)cc1OC` [N-[[3-(3,4-dimethoxyphenyl)-1-phenylpyrazol-4-yl]methylidene]hydroxylamine], a half-maximal effect (EC50) was put at 3.99 µM.
For the molecule `Cc1c(Br)c([N+](=O)[O-])nn1CC(=O)Nc1c(C)n(C)n(-c2ccccc2)c1=O` [2-(4-Bromo-5-methyl-3-nitro-pyrazol-1-yl)-N-(1,5-dimethyl-3-oxo-2-phenyl-2,3-dihydro-1H-pyrazol-4-yl)-acetamide], the EC50 was > 300 µM.
On to `Cc1cccc(NC(=O)C(C)n2cc([N+](=O)[O-])cn2)n1` (configuration not stated) [N-(6-methylpyridin-2-yl)-2-(4-nitro-1H-pyrazol-1-yl)propanamide], for which the EC50 is > 300 µM.
Molecule `CCOC(=O)c1cnc2ccc(C(=O)OC)cc2c1Nc1ccc2c(c1)OCCO2` [4-(2,3-Dihydro-benzo[1,4]dioxin-6-ylamino)-quinoline-3,6-dicarboxylic acid 3-ethyl ester 6-methyl ester] registered an EC50 of 9.12 µM.
In the case of `CCCCCCNC(=O)C(C(=O)OCC)C1CCCCC1` (configuration not stated) [ethyl 2-cyclohexyl-3-(hexylamino)-3-oxidanylidene-propanoate], the EC50 is > 300 µM.
On to `COc1cc([CH+][N-]NC(=O)c2ccc(O)cc2)ccc1Oc1ccc([N+](=O)[O-])cn1` [4-hydroxy-N-[[3-methoxy-4-(5-nitropyridin-2-yl)oxyphenyl]methylideneamino]benzamide;propan-2-ol], for which the EC50 is > 300 µM.
Next, `CCOC(=O)c1cnc2ccc(Cl)cc2c1N1CCN(C)CC1` [6-chloro-4-(4-methyl-1-piperazinyl)-3-quinolinecarboxylic acid ethyl ester]: 14.8 µM; `Cc1ccc(-n2c(=O)c3c4c(sc3n3c(S)nnc23)CCC4)cc1` [SMR000419881]: 44.5 µM; `O=C(O)c1ccccc1Nc1ccc(OC(F)F)cc1` [SMR000372165]: > 300 µM.
Then `O=C(NN=Cc1ccco1)c1ccn[nH]1` [SMR000279368], with > 300 µM; and `O=C(OCCCOC(=O)c1ccccc1O)c1ccccc1O` [2-hydroxybenzoic acid 3-[(2-hydroxyphenyl)-oxomethoxy]propyl ester], with > 300 µM.
On to `CCNc1nc(N)c(C(=C(C#N)C#N)c2ccccc2)s1`, for which the concentration giving a half-maximal response (EC50) was > 300 µM.
In the case of `COc1cccc2c1cc1c(=O)n(CC(=O)NCCCc3ccccc3)nc(C)n12` [MLS001076397], the EC50 is > 300 µM.
Consider `COc1ccc(-c2nn(-c3ccccc3)cc2CN=Nc2ccc3ccccc3n2)cc1OC` [MLS000388895], for which the EC50 is > 300 µM.
Take `COC(=O)c1nnn(-c2nonc2N)c1COc1ccc(C=O)cc1OC` [methyl 1-(4-azanyl-1,2,5-oxadiazol-3-yl)-5-[(4-methanoyl-2-methoxy-phenoxy)methyl]-1,2,3-triazole-4-carboxylate]: the EC50 came to 25.9 µM. This counts as double-digit micromolar.
As for `Cc1ccc(C(=O)N/N=C/c2ccc(-c3ccc([N+](=O)[O-])cc3)o2)cn1` [SMR000431371], the EC50 was > 300 µM.
With `CC(C)N1CCc2c(sc(NC(=O)Cc3ccccc3)c2C(N)=O)C1`, the EC50 was > 300 µM.
In the case of `COc1ccc(-c2nn(-c3ccccc3)cc2C(=O)O)cc1` [SMR000015534], the EC50 was > 300 µM.
Next, `c1ccc(-n2cnnc2SCc2cn3cccnc3n2)cc1` [2-(4-Phenyl-4H-[1,2,4]triazol-3-ylsulfanylmethyl)-imidazo[1,2-a]pyrimidine]: > 300 µM.
The molecule `CCN(CC)Cc1c(C(=O)NN=Cc2ccccn2)nnn1-c1nonc1N` had an EC50 of 9.91 µM.
As to `COc1ccc(C(=O)Nc2ccc([N+](=O)[O-])cn2)cc1OC` [3,4-dimethoxy-N-(5-nitropyridin-2-yl)benzamide], the EC50 was > 300 µM.
For the molecule `CCN(CC)Cc1c(C(=O)NN=Cc2c(Cl)cccc2Cl)nnn1-c1nonc1N` [SMR000620609], the EC50 was > 300 µM.
Regarding `COc1cc(CN=O)ccc1Oc1ccc([N+](=O)[O-])cc1[N+](=O)[O-]` [N-[[4-(2,4-dinitrophenoxy)-3-methoxyphenyl]methylidene]hydroxylamine], the EC50 was > 300 µM.
Molecule `CC(=O)N1CCc2c(sc(NC(=O)CN3C(=O)c4ccccc4C3=O)c2C(N)=O)C1` [MLS000419451] returned an EC50 of 19.5 µM.
For `Cc1ccccc1CSc1nc2n(n1)C(c1cccs1)C1C(=O)CCCC1=N2` (configuration not stated) [2-[(2-methylphenyl)methylsulfanyl]-9-thiophen-2-yl-5,6,7,9-tetrahydro-1H-[1,2,4]triazolo[5,1-b]quinazolin-8-one], the EC50 was > 300 µM.
As to `CCN1CCN(Cc2ccc(NC(=O)c3ccc(C)c(/C=C/c4cnc(Nc5cc(N6CCNCC6)nc(C)n5)cn4)c3)cc2C(F)(F)F)CC1` [SMR000718284], the EC50 was > 300 µM.
Regarding `Fc1cccc(CN=Nc2ncnc3nc[nH]c23)c1`, the 50% effective concentration (EC50) amounted to 11.9 µM.
Next, `COc1ccc(OC)c(Nc2nc(N)c([N+](=O)[O-])c(NC3CCCCC3)n2)c1` [N4-cyclohexyl-N2-(2,5-dimethoxyphenyl)-5-nitropyrimidine-2,4,6-triamine]: > 300 µM; `COc1ccc(/C=C2/Sc3ccc(C(=O)NCCN4CCCCCC4)cc3NC2=O)cc1` [(2E)-N-[2-(azepan-1-yl)ethyl]-2-[(4-methoxyphenyl)methylidene]-3-oxo-4H-1,4-benzothiazine-6-carboxamide]: > 300 µM.
Then `O=C(Nc1cccc(Cl)c1)c1ccc(NCCCN2CCOCC2)c([N+](=O)[O-])c1` [SMR000194818], with > 300 µM; and `COc1ccc(OCCCC(=O)NCc2ccco2)cc1` [N-Furan-2-ylmethyl-4-(4-methoxy-phenoxy)-butyramide], with > 300 µM.
With `Cc1ccnc(NC(=O)c2ccc([N+](=O)[O-])s2)c1` [N-(4-methylpyridin-2-yl)-5-nitro-thiophene-2-carboxamide], the EC50 was > 300 µM.
On to `Cc1nn(CC(=O)NCCCN2CCCCC2)c(=O)c2cc(-c3ccccc3)nn12` [SMR000631197], for which the EC50 was > 300 µM.
Then `CN1CCN(/N=C/c2ccc(-c3ccc([N+](=O)[O-])cc3Cl)o2)CC1` [1-[5-(2-chloro-4-nitrophenyl)-2-furanyl]-N-(4-methyl-1-piperazinyl)methanimine], with > 300 µM; and `CCC1(C)NC(=O)N(CC(=O)Nc2sc3c(c2C(N)=O)CCC3)C1=O` (configuration not stated) [2-[2-[4-ethyl-4-methyl-2,5-bis(oxidanylidene)imidazolidin-1-yl]ethanoylamino]-5,6-dihydro-4H-cyclopenta[b]thiophene-3-carboxamide], with 30.3 µM.
Take `Nc1ncnc(N2CCc3ccccc32)c1[N+](=O)[O-]` [SMR000323059]: it took 14 µM to reach a half-maximal effect (EC50).
On to `COc1cc(CN=Nc2nc(Nc3ccccc3)nc(N3CCCCC3)n2)ccc1OCC(=O)O` [SMR000312683], for which the EC50 is > 300 µM.
For the molecule `CC1=C(C#N)C(=O)NC(=O)C1=NNc1cccc(C)c1` [(5Z)-4-methyl-5-[(3-methylphenyl)hydrazinylidene]-2,6-bis(oxidanylidene)pyridine-3-carbonitrile], the midpoint of the response, the EC50, lay at 0.775 µM.
Next, `COc1cccc(C(=O)Nc2nc(-c3ccncc3)cs2)c1` [3-methoxy-N-(4-pyridin-4-yl-1,3-thiazol-2-yl)benzamide]: > 300 µM; `CC1CCCCN1c1nnc(N)s1` (configuration not stated) [5-(2-methyl-1-piperidinyl)-1,3,4-thiadiazol-2-amine]: > 300 µM; `CCCn1nc(NC(=O)c2cccs2)c2cc3ccccc3nc21` [Thiophene-2-carboxylic acid (1-propyl-1H-pyrazolo[3,4-b]quinolin-3-yl)-amide]: > 300 µM.
As for `N#CC(=Cc1c[nH]nc1-c1ccc(Br)cc1)C(=O)O` [(Z)-3-[5-(4-bromophenyl)-1H-pyrazol-4-yl]-2-cyanoprop-2-enoic acid], the EC50 is > 300 µM.
In turn, `COc1ccc(Nc2nc(NCCCN3CCOCC3)nc(N)c2[N+](=O)[O-])cc1` [N4-(4-methoxyphenyl)-N2-(3-morpholin-4-ylpropyl)-5-nitro-pyrimidine-2,4,6-triamine] had an EC50 of 1.11 µM.
As for `O=C(CN1C(=O)CCC1=O)Nc1cccc2c1C(=O)NC2=O` [MLS000703473], the EC50 was determined as 2.36 µM.
Turning to `COc1ccc(C(C)(C)C)cc1NS(=O)(=O)c1cccc2cccnc12`, the EC50 was > 300 µM.
Next, `Nc1nonc1-n1nnc(C(=O)NN=Cc2ccoc2)c1CSc1ccccc1` [1-(4-azanyl-1,2,5-oxadiazol-3-yl)-N-(furan-3-ylmethylideneamino)-5-(phenylsulfanylmethyl)-1,2,3-triazole-4-carboxamide]: > 300 µM; `O=C(CN1C(=O)c2ccccc2C1=O)Nc1ccccc1F` [2-[1,3-bis(oxidanylidene)isoindol-2-yl]-N-(2-fluorophenyl)ethanamide]: > 300 µM.
As to `Cc1cc(C)c(C)c(S(=O)(=O)Nc2ccccc2C(=O)NCCCn2ccnc2)c1C` [MLS000055504], the EC50 is > 300 µM.
Next, `O=C(COc1ccccc1)N1CCN(S(=O)(=O)c2cccs2)CC1` [1-(phenoxyacetyl)-4-(2-thienylsulfonyl)piperazine]: > 300 µM; `COc1cccc(N(CC(=O)NCC2CCCO2)C(=O)CCC(=O)Nc2nccs2)c1` (configuration not stated) [N'-(3-methoxyphenyl)-N'-[2-oxo-2-(oxolan-2-ylmethylamino)ethyl]-N-(1,3-thiazol-2-yl)butanediamide]: > 300 µM; `Cc1ccsc1C1NC(=O)c2c(sc3c2CCCC3)N1` (configuration not stated) [MLS000027648]: > 300 µM.
`CC1(C)CC(=O)C2C(=NC3=C(C(=O)c4ccccc43)C2c2ccc(O)cc2)C1` (configuration not stated) [10-(4-hydroxyphenyl)-7,7-dimethyl-5,6,8,10-tetrahydroindeno[1,2-b]quinoline-9,11-dione]: the EC50 was > 300 µM.
The molecule `CCOc1ccccc1C=NNC(=O)c1nnn(-c2nonc2N)c1CN1CCCCCC1` returned an EC50 of 0.105 µM.
With `COc1cc(SC)ccc1C(=O)OCC(=O)NCCNC(=O)COC(=O)c1ccc(SC)cc1OC` [MLS001129814], the EC50 was > 300 µM.
Turning to `Cc1ccc2cc(NC(=O)c3cccc(F)c3)ccc2n1` [3-fluoro-N-(2-methyl-6-quinolinyl)benzamide], the EC50 is > 300 µM.
Turning to `Cc1nc(Nc2ccccc2)sc1C(=O)c1ccc(F)cc1` [SMR000567585], the EC50 is > 300 µM.
